Laboratory results from ChEMBL document CHEMBL3885881, “DrugMatrix”.

Organism: Rattus norvegicus
Assay: DrugMatrix - Regimen: Daily Repeat
Assay type: toxicity, organism-based, Sprague-Dawley
Design: regimen Daily Repeat, gender Male, age 6-8 weeks
Conditions: in vivo, po, 1200 mg/kg, route oral GAVAGE, dose level High, vehicle .5 % CMC; for ABSOLUTE BASOPHIL / ABSOLUTE EOSINOPHIL / ABSOLUTE LYMPHOCYTE / ABSOLUTE MONOCYTE / ABSOLUTE SEGMENTED NEUTROPHIL / BASOPHIL / EOSINOPHIL / ERYTHROCYTE COUNT / HEMATOCRIT / HEMOGLOBIN / LEUKOCYTE COUNT / LYMPHOCYTE / MEAN CORPUSCULAR HEMOGLOBIN / MEAN CORPUSCULAR HEMOGLOBIN CONCENTRATION / MEAN CORPUSCULAR VOLUME / MONOCYTE / NEUTROPHIL / NUCLEATED RED BLOOD CELLS / PLATELET COUNT: tissue Blood; for ALANINE AMINOTRANSFERASE / ALBUMIN / ALKALINE PHOSPHATASE / ASPARTATE AMINOTRANSFERASE / BLOOD UREA NITROGEN / CARBON DIOXIDE / CHLORIDE / CHOLESTEROL / CREATINE PHOSPHOKINASE / CREATININE / GLUCOSE / LACTATE DEHYDROGENASE / LIPASE / PHOSPHORUS / POTASSIUM / SODIUM / TOTAL BILIRUBIN / TOTAL PROTEIN / URIC ACID: tissue Plasma

SMILES: O=C(C1CCCCC1)N1CC(=O)N2CCc3ccccc3C2C1 (stereo unspecified) [PRAZIQUANTEL]
- ABSOLUTE BASOPHIL (72 h, time 3 day): 0 CELLS/uL
- ABSOLUTE EOSINOPHIL (72 h, time 3 day): 48 CELLS/uL
- ABSOLUTE LYMPHOCYTE (72 h, time 3 day): 14636 CELLS/uL
- ABSOLUTE MONOCYTE (72 h, time 3 day): 440 CELLS/uL
- ABSOLUTE SEGMENTED NEUTROPHIL (72 h, time 3 day): 1476 CELLS/uL
- BASOPHIL (72 h, time 3 day): 0%
- EOSINOPHIL (72 h, time 3 day): 0.33%
- ERYTHROCYTE COUNT (72 h, time 3 day): 6.1 x10E6/uL
- HEMATOCRIT (72 h, time 3 day): 37.8%
- HEMOGLOBIN (72 h, time 3 day): 14.07 G/DL
- LEUKOCYTE COUNT (72 h, time 3 day): 16.6 x10E3/uL
- LYMPHOCYTE (72 h, time 3 day): 88%
- MEAN CORPUSCULAR HEMOGLOBIN (72 h, time 3 day): 23.1 pg
- MEAN CORPUSCULAR HEMOGLOBIN CONCENTRATION (72 h, time 3 day): 37.23 G/DL
- MEAN CORPUSCULAR VOLUME (72 h, time 3 day): 62.03 fL
- MONOCYTE (72 h, time 3 day): 2.67%
- NEUTROPHIL (72 h, time 3 day): 9%
- NUCLEATED RED BLOOD CELLS (72 h, time 3 day): 0 /100WBC
- PLATELET COUNT (72 h, time 3 day): 1207 x10E3/uL
- ALANINE AMINOTRANSFERASE (72 h, time 3 day): 78.33 u/L
- ALBUMIN (72 h, time 3 day): 4.17 G/DL
- ALKALINE PHOSPHATASE (72 h, time 3 day): 420.67 u/L
- ASPARTATE AMINOTRANSFERASE (72 h, time 3 day): 106 u/L
- BLOOD UREA NITROGEN (72 h, time 3 day): 16.67 mg/dL
- CARBON DIOXIDE (72 h, time 3 day): 21.67 mmol/L
- CHLORIDE (72 h, time 3 day): 106 MEQ/L
- CHOLESTEROL (72 h, time 3 day): 113 mg/dL
- CREATINE PHOSPHOKINASE (72 h, time 3 day): 468 u/L
- CREATININE (72 h, time 3 day): 0.27 mg/dL
- GLUCOSE (72 h, time 3 day): 155.33 mg/dL
- LACTATE DEHYDROGENASE (72 h, time 3 day): 155.67 u/L
- LIPASE (72 h, time 3 day): 12.33 u/L
- PHOSPHORUS (72 h, time 3 day): 12.53 mg/dL
- POTASSIUM (72 h, time 3 day): 6.11 MEQ/L
- SODIUM (72 h, time 3 day): 146.03 MEQ/L
- TOTAL BILIRUBIN (72 h, time 3 day): 0.17 mg/dL
- TOTAL PROTEIN (72 h, time 3 day): 5.9 G/DL
- URIC ACID (72 h, time 3 day): 1.8 mg/dL
- ABSOLUTE BASOPHIL (120 h, time 5 day): 0 CELLS/uL
- ABSOLUTE EOSINOPHIL (120 h, time 5 day): 0 CELLS/uL
- ABSOLUTE LYMPHOCYTE (120 h, time 5 day): 15049.33 CELLS/uL
- ABSOLUTE MONOCYTE (120 h, time 5 day): 624 CELLS/uL
- ABSOLUTE SEGMENTED NEUTROPHIL (120 h, time 5 day): 1126.67 CELLS/uL
- BASOPHIL (120 h, time 5 day): 0%
- EOSINOPHIL (120 h, time 5 day): 0%
- ERYTHROCYTE COUNT (120 h, time 5 day): 6.07 x10E6/uL
- HEMATOCRIT (120 h, time 5 day): 37.33%
- HEMOGLOBIN (120 h, time 5 day): 14 G/DL
- LEUKOCYTE COUNT (120 h, time 5 day): 16.8 x10E3/uL
- LYMPHOCYTE (120 h, time 5 day): 89.67%
- MEAN CORPUSCULAR HEMOGLOBIN (120 h, time 5 day): 23.07 pg
- MEAN CORPUSCULAR HEMOGLOBIN CONCENTRATION (120 h, time 5 day): 37.53 G/DL
- MEAN CORPUSCULAR VOLUME (120 h, time 5 day): 61.5 fL
- MONOCYTE (120 h, time 5 day): 3.67%
- NEUTROPHIL (120 h, time 5 day): 6.67%
- NUCLEATED RED BLOOD CELLS (120 h, time 5 day): 0 /100WBC
- PLATELET COUNT (120 h, time 5 day): 1413.33 x10E3/uL
- ALANINE AMINOTRANSFERASE (120 h, time 5 day): 57.67 u/L
- ALBUMIN (120 h, time 5 day): 4.2 G/DL
- ALKALINE PHOSPHATASE (120 h, time 5 day): 351.33 u/L
- ASPARTATE AMINOTRANSFERASE (120 h, time 5 day): 77 u/L
- BLOOD UREA NITROGEN (120 h, time 5 day): 17.67 mg/dL
- CARBON DIOXIDE (120 h, time 5 day): 27.33 mmol/L
- CHLORIDE (120 h, time 5 day): 103.67 MEQ/L
- CHOLESTEROL (120 h, time 5 day): 102.33 mg/dL
- CREATINE PHOSPHOKINASE (120 h, time 5 day): 250.67 u/L
- CREATININE (120 h, time 5 day): 0.22 mg/dL
- GLUCOSE (120 h, time 5 day): 153 mg/dL
- LACTATE DEHYDROGENASE (120 h, time 5 day): 208.67 u/L
- LIPASE (120 h, time 5 day): 12.33 u/L
- PHOSPHORUS (120 h, time 5 day): 13.13 mg/dL
- POTASSIUM (120 h, time 5 day): 7.47 MEQ/L
- SODIUM (120 h, time 5 day): 145.47 MEQ/L
- TOTAL BILIRUBIN (120 h, time 5 day): 0.17 mg/dL
- TOTAL PROTEIN (120 h, time 5 day): 6.33 G/DL
- URIC ACID (120 h, time 5 day): 2.3 mg/dL
